# Patent publication US8084593B2, “Polynucleotide encoding a TRIM-Cyp polypeptide, compositions thereof, and methods of using same” (The Trustees of Columbia University in the City of New York, priority 2004, dated 2011)
# “Also recorded” adds a separate entry of the source.
# Legend:
# N-MLV [1] = test: N-MLV / B-MLV GFP vector infection of transduced TE671 cells, FACS; format: cell-based, murine leukemia virus; conditions: for N-MLV replication defect (N-tropic restriction by endogenous TRIM5αhu) in cells expressing the construct: TE671 cells, control cells: B-MLV ˜200-fold more infectious than N-MLV
# Experimental: (§1) FIGS. 7a-7c. […] (a) TE671 cells expressing the indicated LPCX derived constructs were infected with GFP-expressing B-MLV and N-MLV vectors at multiple doses. Cells were infected in the presence or absence of As2O3 (3 μM). Two days later, the percentage of infected cells was determined by FACS. (b) OMK cells were transduced with MIG (Vect) or with MIG-TRIM5αhu (T5hu) and challenged with DsRed-expressing N-MLV or B-MLV vectors. Two days later, the percentage of infected cells was determined by FACS.
# FIGS. 8a-8c. Effect of TRIMStop on TRIM5αhu antiviral activity. (a) TE671-Vector (Vector) cells and TE671-TRIMStop cells were infected with HIV-1NL-GFP (left panel) or with N- and B-MLV (right panel). Two days later, the percentage of infected (GFP expressing) cells was determined by FACS. (b) Total RNA was prepared from TE671-Vector (Vect), TE671-TRIMCyp (TC), and TE671-TRIMStop (TS), and RT-PCR was used to detect endogenous TRIM5α or TRIMCyp/TRIMStop. RT was performed in the presence (+) or absence (−) of reverse transcriptase. (c) 293T cells were transfected with LPCX (Vect), LPCX-TRIMCyp (TC), or LPCX-TRIMStop (TS), and Western blotting was performed using an antibody specific to TRIM5.
# Next, we analyzed MLV replication in TE671-TRIM5αrh, TE671-TRIMCyp, and the control TE671-vector cells.
# HIV-1 [2] = format: cell-based, human immunodeficiency virus type 1
# Experimental: (§2) HIV-DsRed and HIV-GFP vectors were produced in 293T cells by co-transfection of CSGW or CSRW with p8.9NΔSB (wild type or G89V mutant) and pMD.G, also at 5:5:1 ratio. HIV/Env-/GFP and SIV/Env-/GFP viruses were produced by cotransfection of the wild type or G89V HIV/Env-/GFP plasmids with pMD.G at a 10:1 ratio. All vectors and viruses were harvested 48 h post-transfection, filtered (0.45-μm filter, Pall Acrodisc), aliquoted, and stored at −80° C. Stocks were normalized by reverse transcriptase activity or p24 ELISA (8).
# (§3) Infection assays—Cells were assayed by flow cytometry 48 to 72 h post-infection to determine the percentage of cells that were GFP-positive (FL-1) or DsRed-positive (FL-2). Cells transduced with pMIG vectors and infected with HIV-DsRed were gated to limit the analysis to GFP-positive cells.
# CAp30 from N-MLV virions = test: CA pull-out of N-MLV virions with GST-TRIM5 fusions; format: binding, murine leukemia virus; conditions: GST fusion produced in 293T cells, purified virions
# N-MLV [3] = test: N-MLV DsRed vector challenge of OMK cells transduced with MIG-TRIM5αhu; format: cell-based, murine leukemia virus
# Experimental: as §1
# (§4) We also performed the reciprocal experiment, transducing owl monkey OMK cells with TRIM5αhu and challenging them with MLV or HIV-1.
# B-MLV = B-MLV DsRed vector challenge of OMK cells transduced with MIG-TRIM5αhu; format: cell-based, murine leukemia virus
# Experimental: as §1, §4
# HIV-1 [4] = test: HIV-1-derived CSRW vector challenge of OMK/MIG and OMK/MIG-T5hu cells; format: cell-based, human immunodeficiency virus type 1; conditions: OMK cells expressing TRIM5αhu
# Experimental: as §1, §4
# CAp30 from B-MLV virions = test: CA pull-out of B-MLV virions with GST-TRIM5 fusions; format: binding, murine leukemia virus; conditions: GST fusion produced in 293T cells, purified virions
# HIV-1NL-GFP = format: cell-based, human immunodeficiency virus type 1; conditions: for HIV-1 cDNA synthesis (Southern blot) / HIV-1 infection (GFP-positive cells by FACS): TE671 cells; for HIV-1 cDNA synthesis (Southern blot): 16 h after infection; for HIV-1 infection (GFP-positive cells by FACS): LPCX vectors
# Experimental: FIG. 6. […] LPCX-based retroviral vectors were used to transduce the indicated genes into human TE671 cells. Vect, Cyp, TS, TC and T5rh designate, respectively, Vector control, owl monkey CypA, TRIMStop, TRIMCyp, and TRIM5αrh. […] One twentieth of the cells were maintained in culture for another day and used to determine the percentage of GFP-positive cells by FACS (bottom of the figure). Total DNA was extracted from the remainder of the cells 16 h after infection, and 5 μg of each DNA sample was analyzed by Southern blotting. The positions of the linear, 1-LTR, and 2-LTR HIV-1 cDNA species are indicated on the left. “Total” DNA refers to a band specific to all HIV-1 cDNA forms, including the integrated DNA.
# We transduced human rhabdomyosarcoma TE671 cells (45) with previously described LPCX vectors (reference 5, see also Example 1) bearing cDNAs for TRIM5αrh, TRIMCyp, or owl monkey CypA. Cells were also transduced with a vector expressing TRIMStop, a truncated version of TRIMCyp lacking the CypA domain (see Example 1). Pools of transduced cells were selected in puromycin and then assessed for susceptibility to infection with HIV-1NL-GFP (32). […] We monitored the percentage of infected (GFP-expressing) cells by fluorescence-activated cell sorting (FACS) and the synthesis of viral cDNA in the infected cells using a Southern blot designed to detect full-length, linear viral cDNA and circular viral cDNAs that form in the nucleus (31, 32, 47).
# HIV-1 [5] = conditions: OMKMH-CypA-147 cells, pMIG vector, HIV-1 DsRed vector
# Experimental: (§5) Generation of stable cell lines—To generate stable RNAi knockdown lines, 1 ml of pMH vector-containing media was pelleted onto OMK cells (1,200 g for 72 min) in 12-well plates. Infection was repeated 24 h later. ntTRIMCyp, TRIMStop and ntCypAOM cDNAs were transduced with either pMIG (OMK and HeLa cells) or pLPCX (TE671 and Rat2 cells). pLPCX-infected cells were selected in 1 μg ml^−1 puromycin.
# as §3
# HIV-1 [6] = tested on: HIV-1
# Experimental: (§6) FIGS. 3a-3e. […] WT, wild type. HeLa cells (d) or Rat2 cells (e) transduced with the indicated cDNAs were infected with HIV-1.
# as §2, §5, §3
# SIVMAC239 = SIVMAC239 infection of TE671 cells transduced with cDNAs; format: cell-based, simian immunodeficiency virus; conditions: stable TE671 cell lines
# Experimental: as §6, §2, §5, §3
# HIV-1 [7] = tested on: HIV-1; remark: listed apart in the source
# Experimental: as §6, §5, §3
# [8] = tested on: TRIM5 orthologues (TRIMCyp, TRIM5αrh, TRIM5αhu, TRIMStop, huTRIMStop); test: Yeast two-hybrid system, β-galactosidase activity: TRIM5 orthologues; format: binding; conditions: LexA / B42 fusions, S. cerevisiae EGY48
# Source text: (§7) FIGS. 9A-9B. TRIMCyp and TRIMStop both bind TRIM5αhu. (A) Yeast two-hybrid system. […] (B) Binding in mammalian cells. TRIM5αhu was fused to GST.
# TRIM5αhu = target: T1, TRIM5αhu (Homo sapiens, UniProt Q9C035); test: GST pull down from cotransfected 293T cells, Western blotting; format: binding; conditions: glutathione-Sepharose beads, anti-TRIM5 Western blot
# T1 construct: expressed in transfected cells; host or cells: 293T
# Source text: as §7
# To investigate TRIM5:TRIMCyp heterodimerization in mammalian cells, we expressed TRIM5αhu in fusion with glutathione-S-transferase (GST) and transfected 293T cells with either GST or GST-TRIM5αhu. These cells were cotransfected with the LPCX plasmid constructs described above that express TRIMCyp or TRIMStop. […] The blot was also probed with an anti-cyclophilin A antibody, confirming the identity of TRIMCyp (FIG. 9b).
# HIV-1 CA = HIV-1 CA (Human immunodeficiency virus type 1 group M subtype B, UniProt P12493); conditions: detergent-prepared virion cores, affinity chromatography
# Experimental: Retrovirion cores can be liberated from the viral membrane envelope by detergent (54). HIV-1 virion cores were prepared with several different detergents and mixed with recombinant TRIM5 orthologues.
# HIV-1 clone NL4-3 = test: Spreading HIV-1 NL4-3 infection of transduced Jurkat T cells, supernatant reverse transcriptase activity; format: cell-based, human immunodeficiency virus type 1; conditions: Jurkat T cells transduced with owl monkey TRIMCyp cDNA
# Source text: FIG. 13. […] Retroviral vectors were used to transduce human Jurkat T cells with the cDNA encoding owl monkey TRIMCyp. Control cells were transduced with vector lacking the cDNA. Cells were challenged with full infectious HIV-1 clone NL4-3. Supernatant was collected and assessed for viral reverse transcriptase activity (a quantitative measure of the amount of virus produced in the culture).
# HIV-1 Gag = HIV-1 Gag (Human immunodeficiency virus type 1 group M subtype B, UniProt P12493); conditions: LexA / B42 fusions, S. cerevisiae EGY48
# Experimental: (A) Yeast two-hybrid system. […] Pairs of fused LexA and B42 expression plasmids were transformed into Saccharomyces cerevisiae strain EGY48. For each transformant, β-galactosidase activity for three colonies is reported in Miller units with the standard deviation. (B) Binding in mammalian cells.
# Fusions of these proteins with LexA and/or B42 were constructed, and the interactions between fusion proteins were analyzed using a previously described system (37) in which reporter gene β-galactosidase activity was assessed with a quantitative assay (43).
# T1 sequence (Q9C035 whole entry): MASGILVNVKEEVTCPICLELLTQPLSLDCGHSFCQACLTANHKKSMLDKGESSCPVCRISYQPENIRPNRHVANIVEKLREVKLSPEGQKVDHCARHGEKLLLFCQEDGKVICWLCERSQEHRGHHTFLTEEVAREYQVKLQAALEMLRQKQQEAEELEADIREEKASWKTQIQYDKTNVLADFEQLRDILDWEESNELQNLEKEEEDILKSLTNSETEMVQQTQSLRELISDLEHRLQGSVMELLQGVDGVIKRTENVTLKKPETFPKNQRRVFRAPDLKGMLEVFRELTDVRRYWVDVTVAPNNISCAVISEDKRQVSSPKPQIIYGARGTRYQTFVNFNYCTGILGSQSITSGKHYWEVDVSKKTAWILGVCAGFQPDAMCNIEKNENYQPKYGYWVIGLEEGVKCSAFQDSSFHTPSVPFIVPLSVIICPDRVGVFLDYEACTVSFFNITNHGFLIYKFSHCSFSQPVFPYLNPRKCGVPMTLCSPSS
molecule,measurement,setting,value
O=[As]O[As]=O (centres unmarked) [As2O3],enhancement of infectivity in cells expressing TRIM5αrh or TRIMCyp,"N-MLV [1]; TE671-TRIM5αrh and TE671-TRIMCyp, As2O3 3 μM",no longer enhanced infectivity
same,increase of N-MLV infectivity,"N-MLV [1]; control TE671 cells, As2O3 3 μM",≥ 10 fold
C/C=C/C[C@@H](C)[C@@H](O)[C@H]1C(=O)N[C@@H](CC)C(=O)N(C)CC(=O)N(C)[C@@H]([C@@H](C)CC)C(=O)N[C@@H](C(C)C)C(=O)N(C)[C@@H](CC(C)C)C(=O)N[C@@H](C)C(=O)N[C@H](C)C(=O)N(C)[C@@H](CC(C)C)C(=O)N(C)[C@@H](CC(C)C)C(=O)N(C)[C@@H](C(C)C)C(=O)N1C [MeIle^4-CsA],HIV-1 infection of OMK cells on drug treatment of target cells,HIV-1 [2],permits HIV-1 to infect OMK cells at an efficiency similar to that of SIV
TRIM5 lacking the SPRY domain: GST fusion with human TRIM5 lacking the SPRY domain,association of CAp30 from N-MLV virions,CAp30 from N-MLV virions,did not associate
TRIM5αhu: human TRIM5α; in Example 3 produced as a GST-fusion protein in 293T cells,restrictive effect on the replication of N-MLV,N-MLV [3],approximately twofold
same,effect on B-MLV,B-MLV,no effect
same,restriction of HIV-1 compared with control cells,HIV-1 [4],similar
same,association of CAp30 from N-MLV virions,CAp30 from N-MLV virions,associated
same,association of CAp30 from B-MLV virions,CAp30 from B-MLV virions,did not associate
TRIM5αrh: alpha isoform of rhesus macaque TRIM5 [reference compound],HIV-1 cDNA synthesis (Southern blot),HIV-1NL-GFP,inhibited HIV-1 cDNA synthesis
same,HIV-1 infection (GFP-positive cells by FACS),HIV-1NL-GFP,inhibited HIV-1 infection of TE671 cells
same,N-MLV replication defect (N-tropic restriction by endogenous TRIM5αhu) in cells expressing the construct,N-MLV [1],about 20 fold
"TRIMCyp: owl monkey TRIM5-CypA fusion protein, 54-kD, SEQ ID NO:4; ntTRIMCyp is its RNAi-resistant cDNA with silent mutations",HIV-1 restriction after transduction of RNAi-resistant cDNA,HIV-1 [5],restricted HIV-1
same,HIV-1 infection / titre in cells expressing the cDNA,HIV-1 [6],highly resistant to HIV-1 infection
same,SIVMAC239 infection in cells expressing the cDNA,SIVMAC239,unaffected
same,HIV-1 restriction in transduced HeLa cells,HIV-1 [7]; pMIG vector,exhibited the same restriction
same,HIV-1 restriction in non-primate cells,HIV-1 [7]; rat fibroblasts (Rat2),functional
same,efficiency of inhibition of HIV-1 replication relative to TRIM5αrh,HIV-1NL-GFP,roughly fivefold more efficiently than TRIM5αrh
same,HIV-1 cDNA synthesis (Southern blot),HIV-1NL-GFP,inhibited HIV-1 cDNA synthesis
same,HIV-1 infection (GFP-positive cells by FACS),HIV-1NL-GFP,inhibited HIV-1 infection of TE671 cells
same,N-MLV replication defect (N-tropic restriction by endogenous TRIM5αhu) in cells expressing the construct,N-MLV [1],fully abrogated
same,interaction with TRIM5 orthologues,[8],interacted equally well; also recorded: associates with human TRIM5-α
same,association with GST-TRIM5αhu,TRIM5αhu,associated with TRIM5αhu
same,association of HIV-1 CA with TRIM5 orthologue,HIV-1 CA,associated
same,protection of human T cells from spreading HIV-1 infection,HIV-1 clone NL4-3,"protected from a spreading, cytopathic HIV-1 infection"
same,interaction with HIV-1 Gag,HIV-1 Gag,interacted equally well
sanglifehrin,HIV-1 infection of OMK cells on drug treatment of target cells,HIV-1 [2],permits HIV-1 to infect OMK cells at an efficiency similar to that of SIV
TRIMStop: construct in which TRIMCyp has been truncated with a stop codon replacing the first codon of the CypA domain (protein) MASRILVNIKEEVTCPICLELLTEPLSLDCGHSFCQACITANHKKSMPHQGERSCPLCRISYSSENLRPNRHLVNIVERLREVMLSPEEGQKVDHCAHHGEKLVLFCQQDGNVICWLCERSQEHRGHQTFLVEEVAQKYREKLQVALEMMRQKQKDAEKLEADVREEQASWKIQIQNDKTNIMAEFKKRRDILDCEESKELQNLEKEEKNILKRLVQSENDMVLQTQSVRVLISDLEHRLQGSVMELLQGVDGVIKRIEKVTLQNPKTFLNEKRRIFQTPDLKGTLQVFKEPTEVQRYWDAAAWDLVASA,HIV-1 infection / titre in cells expressing the cDNA,HIV-1 [6],no effect on HIV-1 titre
same,N-MLV replication defect (N-tropic restriction by endogenous TRIM5αhu) in cells expressing the construct,N-MLV [1],did not affect the capacity of TE671 cells to restrict N-MLV replication
same,interaction with TRIM5 orthologues,[8],as competent as TRIMCyp
same,association with GST-TRIM5αhu,TRIM5αhu,associated with TRIM5αhu
same,interaction with HIV-1 Gag,HIV-1 Gag,not able to interact with Gag
